Assays:
Type in all cases: in vivo
[1] = tested on: Abutilon theophrasti (ABUTH); assay: Herbicidal pre-emergence action, ABUTH; conditions: 1280 g/ha, visual grading after ca. 3 weeks vs untreated controls (Table A1)
Description: (§1) Seeds of mono- and dicotyledonous weed plants were sown in plastic pots (double sowings with one species of mono- and one species of dicotyledonous weed plants per pot), in sandy loam, and covered with soil. The compounds according to the invention, formulated in the form of wettable powders (WP) or as emulsifiable concentrates (EC), were applied to the surface of the covering soil as an aqueous suspension or as an emulsion, with the addition of 0.5% of an additive, at an application rate of 600 litres of water per hectare (converted). Following treatment, the pots were placed in a greenhouse and kept under optimum growth conditions for the test plants. The visual grading of the damage to the test plants is carried out after ca. 3 weeks in comparison to untreated controls (herbicidal effect in percent (%): 100% effect=plants have died, 0% effect=as control plants).

[2] = tested on: Echinochloa crus-galli (ECHCG); assay: Herbicidal pre-emergence action, ECHCG
Description: as §1, with “plants). Seeds of mono- and dicotyledonous weed plants were sown in plastic pots (double sowings with one species of mono- and one species of dicotyledonous weed plants per pot), in sandy loam, and covered with soil. The compounds according to the invention, formulated in the form of wettable powders (WP) or as emulsifiable concentrates (EC), were applied to the surface of the covering soil as an aqueous suspension or as an emulsion, with the addition of 0.5% of an additive, at an application rate of 600 litres of water per hectare (converted). Following treatment, the pots were placed in a greenhouse and kept under optimum growth conditions for the test plants. The visual grading of the damage to the test plants is carried out after ca. 3 weeks in comparison to untreated controls (herbicidal effect in percent (%): 100% effect=plants have died, 0% effect=as control plants).” for “plants).”

[3] = tested on: Kochia scoparia (KCHSC); assay: Herbicidal pre-emergence action, KCHSC
Description: as §1, with “plants). Seeds of mono- and dicotyledonous weed plants were sown in plastic pots (double sowings with one species of mono- and one species of dicotyledonous weed plants per pot), in sandy loam, and covered with soil. The compounds according to the invention, formulated in the form of wettable powders (WP) or as emulsifiable concentrates (EC), were applied to the surface of the covering soil as an aqueous suspension or as an emulsion, with the addition of 0.5% of an additive, at an application rate of 600 litres of water per hectare (converted). Following treatment, the pots were placed in a greenhouse and kept under optimum growth conditions for the test plants. The visual grading of the damage to the test plants is carried out after ca. 3 weeks in comparison to untreated controls (herbicidal effect in percent (%): 100% effect=plants have died, 0% effect=as control plants).” for “plants).”

[4] = tested on: Lolium rigidum (LOLRI); assay: Herbicidal pre-emergence action, LOLRI
Description: as §1, with “plants). Seeds of mono- and dicotyledonous weed plants were sown in plastic pots (double sowings with one species of mono- and one species of dicotyledonous weed plants per pot), in sandy loam, and covered with soil. The compounds according to the invention, formulated in the form of wettable powders (WP) or as emulsifiable concentrates (EC), were applied to the surface of the covering soil as an aqueous suspension or as an emulsion, with the addition of 0.5% of an additive, at an application rate of 600 litres of water per hectare (converted). Following treatment, the pots were placed in a greenhouse and kept under optimum growth conditions for the test plants. The visual grading of the damage to the test plants is carried out after ca. 3 weeks in comparison to untreated controls (herbicidal effect in percent (%): 100% effect=plants have died, 0% effect=as control plants).” for “plants).”

[5] = tested on: Matricaria inodora (MATIN); assay: Herbicidal pre-emergence action, MATIN
Description: as §1, with “plants). Seeds of mono- and dicotyledonous weed plants were sown in plastic pots (double sowings with one species of mono- and one species of dicotyledonous weed plants per pot), in sandy loam, and covered with soil. The compounds according to the invention, formulated in the form of wettable powders (WP) or as emulsifiable concentrates (EC), were applied to the surface of the covering soil as an aqueous suspension or as an emulsion, with the addition of 0.5% of an additive, at an application rate of 600 litres of water per hectare (converted). Following treatment, the pots were placed in a greenhouse and kept under optimum growth conditions for the test plants. The visual grading of the damage to the test plants is carried out after ca. 3 weeks in comparison to untreated controls (herbicidal effect in percent (%): 100% effect=plants have died, 0% effect=as control plants).” for “plants).”

[6] = tested on: Stellaria media (STEME); assay: Herbicidal pre-emergence action, STEME
Description: as §1, with “plants). Seeds of mono- and dicotyledonous weed plants were sown in plastic pots (double sowings with one species of mono- and one species of dicotyledonous weed plants per pot), in sandy loam, and covered with soil. The compounds according to the invention, formulated in the form of wettable powders (WP) or as emulsifiable concentrates (EC), were applied to the surface of the covering soil as an aqueous suspension or as an emulsion, with the addition of 0.5% of an additive, at an application rate of 600 litres of water per hectare (converted). Following treatment, the pots were placed in a greenhouse and kept under optimum growth conditions for the test plants. The visual grading of the damage to the test plants is carried out after ca. 3 weeks in comparison to untreated controls (herbicidal effect in percent (%): 100% effect=plants have died, 0% effect=as control plants).” for “plants).”

[7] = tested on: Veronica persica (VERPE); assay: Herbicidal pre-emergence action, VERPE
Description: as §1, with “plants). Seeds of mono- and dicotyledonous weed plants were sown in plastic pots (double sowings with one species of mono- and one species of dicotyledonous weed plants per pot), in sandy loam, and covered with soil. The compounds according to the invention, formulated in the form of wettable powders (WP) or as emulsifiable concentrates (EC), were applied to the surface of the covering soil as an aqueous suspension or as an emulsion, with the addition of 0.5% of an additive, at an application rate of 600 litres of water per hectare (converted). Following treatment, the pots were placed in a greenhouse and kept under optimum growth conditions for the test plants. The visual grading of the damage to the test plants is carried out after ca. 3 weeks in comparison to untreated controls (herbicidal effect in percent (%): 100% effect=plants have died, 0% effect=as control plants).” for “plants).”

[8] = tested on: Amaranthus retroflexus (AMARE); assay: Herbicidal post-emergence action, AMARE
Description: (§2) Seeds of mono- and dicotyledonous weed plants were sown in plastic pots (double sowings with one species of mono- and one species of dicotyledonous weed plants per pot), in sandy loam, covered with soil and grown under controlled growth conditions. 2 to 3 weeks after sowing, the test plants were sprayed in the single-leaf stage. The compounds according to the invention, formulated in the form of wettable powders (WP) or as emulsifiable concentrates (EC), were sprayed onto the green plant parts as an aqueous suspension or as an emulsion, with the addition of 0.5% of an additive, at an application rate of 600 litres of water per hectare (converted). The test plants were placed in the greenhouse for ca. 3 weeks under optimum growth conditions, and then the effect of the preparations is assessed visually in comparison with untreated controls (herbicidal effect in percent (%): 100% effect=plants have died, 0% effect=as control plants). […]

[9] = tested on: Echinochloa crus-galli (ECHCG); assay: Herbicidal post-emergence action, ECHCG
Description: as §2

[10] = tested on: Lolium rigidum (LOLRI); assay: Herbicidal post-emergence action, LOLRI
Description: as §2

[11] = tested on: Poa annua (POAAN); assay: Herbicidal post-emergence action, POAAN
Description: as §2

[12] = tested on: Stellaria media (STEME); assay: Herbicidal post-emergence action, STEME
Description: as §2

[13] = tested on: Veronica persica (VERPE); assay: Herbicidal post-emergence action, VERPE
Description: as §2

[14] = 1280 g/ha, visual grading after ca. 3 weeks vs untreated controls (Table A3)
[15] = 320 g/ha, visual grading after ca. 3 weeks vs untreated controls (Table C1)
[16] = 1280 g/ha, visual grading after ca. 3 weeks vs untreated controls (Table A4)
[17] = 320 g/ha, visual grading after ca. 3 weeks vs untreated controls (Table C2)
[18] = 1280 g/ha, visual grading after ca. 3 weeks vs untreated controls (Table A5)
[19] = 320 g/ha, visual grading after ca. 3 weeks vs untreated controls (Table C3)
[20] = 1280 g/ha, visual grading after ca. 3 weeks vs untreated controls (Table A6)
[21] = 320 g/ha, visual grading after ca. 3 weeks vs untreated controls (Table C6)
[22] = 1280 g/ha, visual grading after ca. 3 weeks vs untreated controls (Table A9)
[23] = 320 g/ha, visual grading after ca. 3 weeks vs untreated controls (Table C7)
[24] = 1280 g/ha, visual grading after ca. 3 weeks vs untreated controls (Table A10)
[25] = 320 g/ha, assessed visually after ca. 3 weeks vs untreated controls (Table D6)
[26] = 1280 g/ha, assessed visually after ca. 3 weeks vs untreated controls (Table B11)
[27] = 1280 g/ha, assessed visually after ca. 3 weeks vs untreated controls (Table B3)
[28] = 1280 g/ha, assessed visually after ca. 3 weeks vs untreated controls (Table B5)
[29] = 320 g/ha, assessed visually after ca. 3 weeks vs untreated controls (Table D3)
[30] = 1280 g/ha, assessed visually after ca. 3 weeks vs untreated controls (Table B8)
[31] = 320 g/ha, assessed visually after ca. 3 weeks vs untreated controls (Table D4)
[32] = 1280 g/ha, assessed visually after ca. 3 weeks vs untreated controls (Table B9)
[33] = 320 g/ha, assessed visually after ca. 3 weeks vs untreated controls (Table D5)
[34] = 1280 g/ha, assessed visually after ca. 3 weeks vs untreated controls (Table B10)

| Compound | herbicidal effect in percent, ABUTH [1] | herbicidal effect in percent, ECHCG [2, 14] | herbicidal effect in percent, KCHSC [3, 15] | herbicidal effect in percent, KCHSC [3, 16] | herbicidal effect in percent, LOLRI [4, 18] | herbicidal effect in percent, MATIN [5, 19] | herbicidal effect in percent, MATIN [5, 20] | herbicidal effect in percent, STEME [6, 21] | herbicidal effect in percent, STEME [6, 22] | herbicidal effect in percent, VERPE [7, 24] | herbicidal effect in percent, AMARE [8, 25] | herbicidal effect in percent, AMARE [8, 26] | herbicidal effect in percent, ECHCG [9, 27] | herbicidal effect in percent, LOLRI [10, 28] | herbicidal effect in percent, POAAN [11, 29] | herbicidal effect in percent, POAAN [11, 30] | herbicidal effect in percent, STEME [12, 31] | herbicidal effect in percent, STEME [12, 32] | herbicidal effect in percent, VERPE [13, 33] | herbicidal effect in percent, VERPE [13, 34] | other results |
| --- | --- | --- | --- | --- | --- | --- | --- | --- | --- | --- | --- | --- | --- | --- | --- | --- | --- | --- | --- | --- | --- |
| O=C(Nc1ncns1)c1c(C2CC2)ccnc1Cl [Example I-003, 2-chloro-4-cyclopropyl-N-(1,2,4-thiadiazol-5-yl)pyridine-3-carboxamide] | 90% | 90% | 90% | 100% | 90% | 100% | 100% | 100% | 100% | 90% | 100% | 100% | 90% | 90% | 90% | 100% | 100% | 100% | 90% | 100% | herbicidal effect in percent, LOLRI [4, 17]: 90%; herbicidal effect in percent, VERPE [7, 23]: 90% |
| O=C(Nc1ncns1)c1c(C2CC2)ccnc1F [Example I-005] | 90% | 90% | 100% | 100% | 100% | 100% | 100% | 100% | 100% | 100% | 100% | 100% | 90% | 100% | 100% | 100% | 100% | 100% | 100% | 100% | herbicidal effect in percent, ECHCG ([2]; 320 g/ha, visual grading after ca. 3 weeks vs untreated controls (Table C9)): 90%; herbicidal effect in percent, LOLRI [4, 17]: 100%; herbicidal effect in percent, VERPE [7, 23]: 90%; herbicidal effect in percent, LOLRI ([10]; 320 g/ha, assessed visually after ca. 3 weeks vs untreated controls (Table D9)): 100% |
| O=C(Nc1nc(Cl)ns1)c1c(C2CC2)ccnc1Cl [Example I-013] | 90% | 90% |  | 90% | 90% | 90% | 100% | 90% | 100% | 90% | 90% | 90% | 90% | 90% | 90% | 90% | 90% | 90% | 90% | 90% | herbicidal effect in percent, ECHCG ([9]; 320 g/ha, assessed visually after ca. 3 weeks vs untreated controls (Table D7)): 90% |

From patent US20240352010A1, “SUBSTITUTED 1,2,4-THIADIAZOLYL NICOTINAMIDES, SALTS OR N-OXIDES THEREOF AND THEIR USE AS HERBICIDALLY ACTIVE SUBSTANCES” (BayerAktiengesellschaft, priority 2021, published 2024)
